From article PMC6150173, “Tryptophan-Containing Cyclic Decapeptides with Activity against Plant Pathogenic Bacteria” (Molecules : A Journal of Synthetic Chemistry and Natural …, 2017)
Several values for one entry are separate records, joined by “and”; a condition that tells them apart may be missing. Equal values may be shown once. Peptide text beside a SMILES is read from it.

Experiments:
Type in all cases: cell-based
[1] = tested on: erythrocyte suspensions of human blood; assay: Hemolytic activity, hemoglobin release; conditions: human blood erythrocytes 5% v/v, absorbance 540 nm, percentage compared to melittin, three replicates; for Hemolysis (%) at 50 µM: peptide 50 μM (table prints 50 µM); for Hemolysis (%) at 125 µM: peptide 125 μM (table prints 125 µM)
Protocol: The hemolytic activity of the compounds was evaluated at 50 and 125 μM by determining hemoglobin release from erythrocyte suspensions of human blood (5% v/v) (Oxoid) using absorbance at 540 nm, as previously described. Three replicates for each peptide concentration were used.

[2] = tested on: Pseudomonas syringae pv. syringae EPS94; assay: Antibacterial activity (MIC), in vitro growth inhibition; conditions: Table S1, MIC range
Protocol: (§1) Erwinia amylovora PMV6076 (Institut National de la Recherche Agronomique, Angers, France), Pseudomonas syringae pv. syringae EPS94 (Institut de Tecnologia Agroalimentària, Universitat de Girona, Spain), and Xanthomonas axonopodis pv. vesicatoria 2133-2 (Instituto Valenciano de Investigaciones Agrarias, Valencia, Spain) were used as bacterial strains. They were stored and cultivated as previously described.
(§2) The minimum inhibitory concentration (MIC) was analyzed as previously described at 0.8, 1.6, 3.1, 6.2, 12.5, 25 and 50 μM [20].

[3] = tested on: Erwinia amylovora PMV6076; assay: as above; conditions: Table S1, MIC range
Protocol: as §1, §2

[4] = tested on: Xanthomonas axonopodis pv. vesicatoria 2133-2; conditions: Table S1, MIC range
Protocol: as §1, §2

SMILES	Hemolysis (%) at 50 µM [1] [%]	Hemolysis (%) at 125 µM [1]	MIC Pss [2] [µM]	MIC Ea [3] [µM]	MIC Xav [4] [µM]
CC(C)C[C@@H]1NC(=O)[C@H](CCCCN)NC(=O)[C@H](CCCCN)NC(=O)[C@H](CCCCN)NC(=O)[C@H](CCC(N)=O)NC(=O)[C@H](CCCCN)NC(=O)[C@H](CC(C)C)NC(=O)[C@H](CC(C)C)NC(=O)[C@H](Cc2c[nH]c3ccccc23)NC(=O)[C@H](CCCCN)NC1=O [BPC102W, c(KKKLKWLLKQ)] (cyclo(KKKLKWLLKQ))	12	17%	3.1 to 6.2	12.5 to 25	6.2 to 12.5
CC(C)C[C@@H]1NC(=O)[C@H](CCCCN)NC(=O)[C@H](CCCCN)NC(=O)[C@H](Cc2c[nH]c3ccccc23)NC(=O)[C@H](CCCCN)NC(=O)[C@H](CC(C)C)NC(=O)[C@H](CCCCN)NC(=O)[C@H](CC(C)C)NC(=O)[C@H](CCCCN)NC(=O)[C@H](CCC(N)=O)NC1=O [BPC090W, c(KLKLKWKKLQ)] (cyclo(KKLQKLKLKW))	9	15%	6.2 to 12.5	12.5 to 25	1.6 to 3.1
CC(C)C[C@@H]1NC(=O)[C@H](CCCCN)NC(=O)[C@H](CCC(N)=O)NC(=O)[C@H](CCCCN)NC(=O)[C@H](CC(C)C)NC(=O)[C@H](CCCCN)NC(=O)[C@H](Cc2c[nH]c3ccccc23)NC(=O)[C@H](CC(C)C)NC(=O)[C@H](CCCCN)NC(=O)[C@H](CCCCN)NC1=O [BPC114W, c(KLKKLWKLKQ)] (cyclo(KKLWKLKQKL))	29	38%	3.1 to 6.2	12.5 to 25	1.6 to 3.1
CC(C)C[C@@H]1NC(=O)[C@H](CCCCN)NC(=O)[C@H](CCCCN)NC(=O)[C@H](CCCCN)NC(=O)[C@H](CCCCN)NC(=O)[C@H](CCC(N)=O)NC(=O)[C@H](CC(C)C)NC(=O)[C@H](CC(C)C)NC(=O)[C@H](CCCCN)NC(=O)[C@H](Cc2c[nH]c3ccccc23)NC1=O [BPC060W, c(KKKKLWKLLQ)] (cyclo(KKKKLWKLLQ))	22	29%	3.1 to 6.2	12.5 to 25	6.2 to 12.5
CC(C)C[C@@H]1NC(=O)[C@H](CCCCN)NC(=O)[C@H](CCCCN)NC(=O)[C@H](CC(C)C)NC(=O)[C@H](CC(C)C)NC(=O)[C@H](CCC(N)=O)NC(=O)[C@H](CCCCN)NC(=O)[C@H](CCCCN)NC(=O)[C@H](CCCCN)NC(=O)[C@H](Cc2c[nH]c3ccccc23)NC1=O [BPC158W, c(LLKKLWKKKQ)] (cyclo(KKKQLLKKLW))	10	14%	12.5 to 25	12.5 to 25	1.6 to 3.1
CC(C)C[C@@H]1NC(=O)[C@H](CCCCN)NC(=O)[C@H](CCC(N)=O)NC(=O)[C@H](CCCCN)NC(=O)[C@H](CCCCN)NC(=O)[C@H](CC(C)C)NC(=O)[C@H](Cc2c[nH]c3ccccc23)NC(=O)[C@H](CCCCN)NC(=O)[C@H](CCCCN)NC(=O)[C@H](CC(C)C)NC1=O [BPC142W, c(KLLKKWLKKQ)] (cyclo(KKQKLLKKWL))	16	18%	6.2 to 12.5	12.5 to 25	3.1 to 6.2
CC(C)C[C@@H]1NC(=O)[C@H](CCCCN)NC(=O)[C@H](CC(C)C)NC(=O)[C@H](CCC(N)=O)NC(=O)[C@H](CC(C)C)NC(=O)[C@H](CCCCN)NC(=O)[C@H](CCCCN)NC(=O)[C@H](Cc2c[nH]c3ccccc23)NC(=O)[C@H](CCCCN)NC(=O)[C@H](CCCCN)NC1=O [BPC096W, c(LKLKKWKKLQ)] (cyclo(KKLQLKLKKW))	10	15%	6.2 to 12.5	12.5 to 25	1.6 to 3.1
CC(C)C[C@@H]1NC(=O)[C@H](CCCCN)NC(=O)[C@H](Cc2c[nH]c3ccccc23)NC(=O)[C@H](CCCCN)NC(=O)[C@H](CCCCN)NC(=O)[C@H](CC(C)C)NC(=O)[C@H](CC(C)C)NC(=O)[C@H](CCCCN)NC(=O)[C@H](CCC(N)=O)NC(=O)[C@H](CCCCN)NC1=O [BPC122W, c(KLLKKWKLKQ)] (cyclo(KKWKLKQKLL))	2	6%	3.1 to 6.2	12.5 to 25	6.2 to 12.5
CC(C)C[C@@H]1NC(=O)[C@H](CCCCN)NC(=O)[C@H](CCCCN)NC(=O)[C@H](CCC(N)=O)NC(=O)[C@H](CC(C)C)NC(=O)[C@H](CCCCN)NC(=O)[C@H](CC(C)C)NC(=O)[C@H](Cc2c[nH]c3ccccc23)NC(=O)[C@H](CCCCN)NC(=O)[C@H](CCCCN)NC1=O [BPC074W, c(KKLKKWLKLQ)] (cyclo(KKLKKWLKLQ))	39	50%	6.2 to 12.5	12.5 to 25	1.6 to 3.1
CC(C)C[C@@H]1NC(=O)[C@H](CCC(N)=O)NC(=O)[C@H](CCCCN)NC(=O)[C@H](CC(C)C)NC(=O)[C@H](CC(C)C)NC(=O)[C@H](Cc2c[nH]c3ccccc23)NC(=O)[C@H](CCCCN)NC(=O)[C@H](CCCCN)NC(=O)[C@H](CCCCN)NC(=O)[C@H](CCCCN)NC1=O [BPC108W, c(LKKKKWLLKQ)] (cyclo(KKKKWLLKQL))	4	5% and ≤ 8%	1.6 to 3.1	6.2 to 12.5	1.6 to 3.1
CC(C)C[C@@H]1NC(=O)[C@H](CCCCN)NC(=O)[C@H](CCCCN)NC(=O)[C@H](Cc2c[nH]c3ccccc23)NC(=O)[C@H](CCCCN)NC(=O)[C@H](CC(C)C)NC(=O)[C@H](CC(C)C)NC(=O)[C@H](CCCCN)NC(=O)[C@H](CC(C)C)NC(=O)[C@H](CCC(N)=O)NC1=O [BPC192W, c(LKLLKWKKLQ)] (cyclo(KKLQLKLLKW))	13	17%	12.5 to 25	25 to 50	6.2 to 12.5
CC(C)C[C@@H]1NC(=O)[C@H](CCCCN)NC(=O)[C@H](Cc2c[nH]c3ccccc23)NC(=O)[C@H](CC(C)C)NC(=O)[C@H](CC(C)C)NC(=O)[C@H](CCCCN)NC(=O)[C@H](CCCCN)NC(=O)[C@H](CCCCN)NC(=O)[C@H](CCC(N)=O)NC(=O)[C@H](CCCCN)NC1=O [BPC110W, c(KKKLLWKLKQ)] (cyclo(KKKLLWKLKQ))	3	4%	3.1 to 6.2	12.5 to 25	6.2 to 12.5
CC(C)C[C@@H]1NC(=O)[C@H](CCC(N)=O)NC(=O)[C@H](CCCCN)NC(=O)[C@H](CC(C)C)NC(=O)[C@H](CCCCN)NC(=O)[C@H](Cc2c[nH]c3ccccc23)NC(=O)[C@H](CC(C)C)NC(=O)[C@H](CCCCN)NC(=O)[C@H](CCCCN)NC(=O)[C@H](CCCCN)NC1=O [BPC116W, c(LKKKLWKLKQ)] (cyclo(KKKLWKLKQL))	9	14%	3.1 to 6.2	12.5 to 25	3.1 to 6.2
